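Following 48 hours of exposure in 96-well plates, responses at five concentrations were used to interpolate endpoints linearly. The concentration for full growth arrest is given as TGI.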
What was measured:
Test in all cases: DTP human tumour cell line panel, 48 h
786-0 renal = test system: 786-0 renal
A498 renal = test system: A498 renal
A549 NSCLC = test system: A549 NSCLC
ACHN renal = test system: ACHN renal
BT-549 breast = test system: BT-549 breast
CAKI-1 renal = test system: CAKI-1 renal
CCRF-CEM leukemia = test system: CCRF-CEM leukemia
COLO 205 colon = test system: COLO 205 colon
DU-145 prostate = test system: DU-145 prostate
EKVX NSCLC = test system: EKVX NSCLC
HCC-2998 colon = test system: HCC-2998 colon
HCT-116 colon = test system: HCT-116 colon
HCT-15 colon = test system: HCT-15 colon
HL-60(TB) leukemia = test system: HL-60(TB) leukemia
HOP-62 NSCLC = test system: HOP-62 NSCLC
HOP-92 NSCLC = test system: HOP-92 NSCLC
HS 578T breast = test system: HS 578T breast
HT29 colon = test system: HT29 colon
IGROV1 ovarian = test system: IGROV1 ovarian
K-562 leukemia = test system: K-562 leukemia
KM12 colon = test system: KM12 colon
LOX IMVI melanoma = test system: LOX IMVI melanoma
M14 melanoma = test system: M14 melanoma
MCF7 breast = test system: MCF7 breast
MDA-MB-231 breast = test system: MDA-MB-231 breast
MDA-MB-435 = test system: MDA-MB-435
MDA-N = test system: MDA-N
MOLT-4 leukemia = test system: MOLT-4 leukemia
NCI-H226 lung = test system: NCI-H226 lung
NCI-H23 lung = test system: NCI-H23 lung
NCI-H460 lung = test system: NCI-H460 lung
NCI-H522 lung = test system: NCI-H522 lung
NCI/ADR-RES ovarian = test system: NCI/ADR-RES ovarian
OVCAR-3 ovarian = test system: OVCAR-3 ovarian
OVCAR-4 ovarian = test system: OVCAR-4 ovarian
OVCAR-5 ovarian = test system: OVCAR-5 ovarian
OVCAR-8 ovarian = test system: OVCAR-8 ovarian
PC-3 prostate = test system: PC-3 prostate
RPMI-8226 leukemia = test system: RPMI-8226 leukemia
RXF 393 renal = test system: RXF 393 renal
SF-268 CNS = test system: SF-268 CNS
SF-295 CNS = test system: SF-295 CNS
SF-539 CNS = test system: SF-539 CNS
SK-MEL-2 melanoma = test system: SK-MEL-2 melanoma
SK-MEL-28 melanoma = test system: SK-MEL-28 melanoma
SK-MEL-5 melanoma = test system: SK-MEL-5 melanoma
SK-OV-3 ovarian = test system: SK-OV-3 ovarian
SN12C renal = test system: SN12C renal
SNB-19 CNS = test system: SNB-19 CNS
SR leukemia = test system: SR leukemia
SW-620 colon = test system: SW-620 colon
T-47D breast = test system: T-47D breast
TK-10 renal = test system: TK-10 renal
U251 CNS = test system: U251 CNS
UACC-257 melanoma = test system: UACC-257 melanoma
UACC-62 melanoma = test system: UACC-62 melanoma
UO-31 renal = test system: UO-31 renal

Measured: TGI

CC1=CN(c2ccccc2)S2=C1c1sc3c(c1N2c1ccc(Br)cc1)CCCC3 (configuration not stated)
> 100 µM: all assays above
